According to patent US20080118480A1, “Methods and Compositions for Directing Migration of Neural Progenitor Cells” (IMCLONE SYSTEMS INCORPORATED, priority 2003, published 2008):
“Also recorded” adds a separate entry of the source.

Key:
Format in all cases: cell-based, rat
[1] = system: neural progenitor cells; assay: Dunn chamber chemotaxis / chemokinesis of neural progenitor cells
Description: The SVZ was dissected from coronal slices of newborn rat brains, dissociated mechanically and trypsinized according to methods known in the art (See Lim et al. “Noggin antagonizes BMP signaling to create a niche for adult neurogenesis, Neuron, 28: 713-726 (2000), which is incorporated by reference herein). SVZ progenitors were purified using percoll gradient centrifugation according to methods known in the art (See Lim et al., 2000) and seeded onto matrigel (0.24 mg/cm^2)- or laminin-coated coverslips. Isolated cells were allowed to grow in Neurobasal medium supplemented with 20 ng/ml FGF-2, 1×B27, 2 mM […], 1 mM sodium pyruvate, 2 mM N-acetyl-cysteine, and 1% penicillin-streptomycin. Cultures were fed every three days with fresh medium containing 20 ng/ml FGF-2.
[…] Cell Sci., 99:769-775 (1991); Allen et al., “A role for Cdc42 in macrophage chemotaxis,” J. Cell. Biol, 141:1147-1157 (1998), both of which are incorporated by reference herein). Recombinant human VEGF-CΔNΔC (Dr. M. Skobe, Cancer Center, Mount Sinai Medical Center, New York) was used in some experiments. The Dunn chamber is made from a Helber bacteria counting chamber by grinding a circular well in the central platform to leave a 1 mm wide annular bridge between the inner and the outer well. Chemoattractants added to the outer well of the device will diffuse across the bridge to the inner blind well of the chamber and form a gradient. This apparatus allows one to determine the direction of migration in relation to the direction of the gradient.
Coverslips with cells were inverted onto the chamber and cell migration was recorded through the annular bridge between the concentric inner and outer wells, and a period of 2 hours was chosen to assess cell migration. In these studies, a systematic sampling was applied and all cells within the migration region of the chamber were recorded and analyzed. Data were recorded every 10 minutes using a ZEISS 10× objective via a HAMAMATSU CCD video camera using Openlab software.
[…] For chemokinesis experiments, VEGF (20 ng/ml) or FGF-2 (20 ng/ml) was added to both outer and inner wells of the Dunn chamber.
Directionality of cell movement was analyzed using scatter diagrams of cell displacement. The diagrams were oriented so that the position of the outer well of the chamber was vertically upwards (y direction). Each point represents the final positions of the cells at the end of the recording period where the starting point of migration is fixed at the intersection of the two axes.
To determine the efficiency of forward migration during the 2-hour recording period, each cell's forward migration index (FMI) was calculated as the ratio of forward progress (net distance the cell progressed in the direction of VEGF source) to the total path length (total distance the cell traveled through the field) (Foxman et al., 1999). FMI values were negative when cells moved away from the source of VEGF. The cell speed was calculated for each lapse interval recorded during the 2-hour period.

[2] = system: subventricular zone (SVZ) explants; assay: Migration of neural progenitor cells from SVZ explants in collagen matrix
From the text: The frontal lobes of the brains of one-day-old Sprague-Dawley rat pups (Size, Zurich, Switzerland) were isolated and cut into 300 μm thick coronal sections with a McIllwain tissue chopper. From these slices the anterior part of the subventricular zone (SVZ) was microdissected. The SVZ explants were embedded in a collagen matrix and cultured for 7 days in chemically-defined serum-free medium (50% Dulbecco's modified Eagle's medium [Gibco, Berlin, […]], 50% F12, HEPES, Tris-HCl, and complemented with transferrin human 20 μg/ml, putrescine 100 μM, sodium selenite 30 nM, triiodothyronin 1 nM, docosahexaenoic acid 0.5 μg/ml, arachidonic acid 1 μg/ml, insulin 60 U/l) under 5% CO2. The medium was changed every 3rd day. For co-culture experiments, SVZ explants were cultured in the presence of murine C2C12 myoblasts that had been engineered to secret […] et al., 2001). C2C12 cells were suspended in a drop of collagen matrix which was placed at a distance of approximately 1,000 μm from the SVZ explant. As a control, mock-transfected cells of the same origin were placed into the collagen matrix in a similar manner and at the same distance, but on the opposite side of the explant. Cell migration was assessed at the end of the 7th day in culture. Three categories were established: 1, no migration: no or only a few cells emigrated from the explants; 2, symmetrical migration: numerous cells had left the explants, the distance of the migrating front of the cells exceeded 50 μm, no directionality of migration; 3, asymmetrical or directional migration: when the distance of the migrating front were at least twice that on the other side and exceeded 50 μm.

[3] = system: VEGFR-1; assay: RNase protection assay of VEGF receptor mRNA expression; settings: 12 hours starvation of FGF-2 versus cells in FGF-2
Description: (§1) Neural progenitor cells at 6 days of culture in FGF-2 or after starvation of FGF-2 for 12 hours were used for RNA preparation. Total cellular RNA was purified using Trizol reagent (Invitrogen). RNase protection assays were performed using cRNA probes for rat VEGFR1 and VEGFR2 as described in Pepper et al. (2000).

[4] = system: VEGFR-2; assay: as above; settings: 12 hours starvation of FGF-2 versus cells in FGF-2
Description: as §1

[5] = system: VEGFR-2; assay: Immunoprecipitation and Western blot of VEGFR-2 protein
Description: Neural progenitor cells from the normal cultures in FGF-2 or from cultures starved of FGF-2 for 12 hours were lysed and VEGFR-2 protein was immunoprecipitated from cell lysates with a polyclonal antibody (sc-504; Santa Cruz Biochemicals, Santa Cruz, Calif.) recognizing amino aids 1158 to 1345 in the mouse VEGFR2 carboxy terminus. Western blot was performed with a polyclonal anti-VEGFR-2 antibody (sc-315; Santa Cruz Biochemicals) recognizing the mouse carboxy terminal amino acids 1348 to 1367.

Row | level of VEGFR-1 transcripts after FGF-2 starvation [3] | level of VEGFR-2 transcripts after FGF-2 starvation [4] | Substance | directionality of migration under chemokinesis conditions ([1]; VEGF (20 ng/ml) in both inner and outer wells, FGF-2 present) | forward migration index (FMI) versus FGF-2 gradient or chemokinesis ([1]; VEGF gradient in the presence of FGF-2, 2-hour recording) | migration speed versus FGF-2 gradient or chemokinesis ([1]; VEGF gradient in the presence of FGF-2, mean over 2 hours) | chemotaxis in a VEGF gradient after FGF-2 starvation ([1]; cells at 5 days starved of FGF-2 for 12 hours, then VEGF gradient) | chemotaxis of neural progenitor cells in a VEGF gradient ([1]; gradient established with 200 ng/ml VEGF in outer well, 20 ng/ml FGF-2 in both wells, day 6 cells, 2-hour recording) | attractive effect on different coating matrices ([1]; laminin-, poly-L-lysine- or matrigel-coated coverslips) | explants with no significant cell migration ([2]; application of VEGF in the absence of FGF-2) | chemotactic response to VEGF after re-addition of FGF-2 ([1]; 12-hour FGF-2 starvation, then 8-hour re-incubation with FGF-2, VEGF gradient) | chemotactic effect of FGF-2 ([1]; FGF-2 gradient, whether or not VEGF was present) | VEGFR-2 protein expression in the presence of FGF-2 ([5]; cultured in FGF-2) | VEGFR-2 protein expression in the absence of FGF-2 ([5]; starved of FGF-2 for 12 hours) | explants with migrating cells symmetrically distributed ([2]; FGF-2 (20 ng/ml), co-cultured with mock-transfected cells) | explants with symmetric migration ([2]; application of VEGF and FGF-2 together or FGF-2 alone)
1 | – | – | VEGF | no clear preference for displacement | significantly greater | significantly greater | lose their chemotactic response; also recorded: failed to undergo chemotaxis | clear directionality of migration; also recorded: strong positive chemotaxis; also recorded: migrated efficiently toward the source of VEGF | similar | 4/4 | – | – | – | – | – | –
2 | fivefold decrease | fivefold decrease | FGF-2: fibroblast growth factor-2 (FGF-2), used at 20 ng/ml in culture medium | – | – | – | – | – | – | – | resume their chemotactic response; also recorded: rescued | no chemotactic effect | substantial expression | little to no expression | 10/10 | 12/12
